Test results reported in US11591341B2 (ALIGOS THERAPEUTICS, INC., priority 2019, dated 2023).

Tested on: HBV
Test: HBV-DNA Antiviral Assay Using HepG2.117 Cells (intracellular HBV DNA by qPCR)
Format: cell-based, hepatitis B virus (genotype D)
Details: Hepatitis B virus, HepG2.117
Outline: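 HepG2.117 cells (genotype D HBV, Tet-off) were induced by doxycycline withdrawal and treated for 3 days with 9 concentrations in 4-fold dilution, 2% DMSO final. Intracellular HBV DNA was measured by qPCR against a standard curve, with ATPlite viability read in parallel. EC50, EC90 and CC50 came from fits against the DMSO control.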

Row | Compound | EC50 [nM]
1 | O=C(NCc1cccc2cccnc12)c1c2n(c(=O)n1-c1ccc(OCC(F)(F)F)cc1)CCN(C(=O)c1ccc(Br)c(Cl)c1)C2 [Example 230, 7-(4-bromo-3-chloro-benzoyl)-3-oxo-N-(8-quinolylmethyl)-2-[4-(2,2,2-triflurooethoxy)phenyl]-6,8-dihydro-5H-imidazo[1,5-a]pyrazine-1-carboxamide] | 100 to 500
2 | O=C(NCc1ccccc1-n1cccn1)c1c2n(c(=O)n1-c1ccc(OCC(F)(F)F)cc1)CCN(C(=O)c1ccc(Br)c(Cl)c1)C2 [Example 231, 7-(4-bromo-3-chloro-benzoyl)-3-oxo-N[(2-pyrazol-1-ylphenyl)methyl]-2-[4-(2,2,2-trifluoroethoxy)phenyl]-6,8-dihydro-5H-imidazo[1,5-a]pyrazine-1-carboxamide] | < 100
3 | CC(C)Oc1ccc(-n2c(C(=O)NCc3ccc(=O)n(C)c3)c3n(c2=O)CCN(C(=O)c2ccc(Br)c(Cl)c2)C3)cc1 [Example 232, 7-(4-bromo-3-chloro-benzoyl)-2-(4-isopropoxyphenyl)-N-[(1-methyl-6-oxo-3-pyridyl)methyl]-3-oxo-6,8-dihydro-5H-imidazo[1,5-a]pyrazine-1-carboxamide] | > 5000
4 | COc1cc(C#N)ccc1CNC(=O)c1c2n(c(=O)n1-c1ccc(OC(C)C)cc1)CCN(C(=O)c1ccc(Br)c(Cl)c1)C2 [Example 236, 7-(4-bromo-3-chloro-benzoyl)-N-[(4-cyano-2-methoxy-phenyl)methyl]-2-(4-isopropoxyphenyl)-3-oxo-6,8-dihydro-5H-imidazo[1,5-a]pyrazine-1-carboxamide] | 100 to 500
5 | O=C(c1ccc(Br)c(Cl)c1)N1CCn2c(c3n(c2=O)CC2(COC2)CN(Cc2ccccc2)C3=O)C1 [Example 239, 13-benzyl-4-(4-bromo-3-chloro-benzoyl)spiro[4,7,9,13-tetrazatricyclo[7.5.0.0 2,7]tetradec-1-ene-11,3′-oxetane]-8,14-dione] | 500 to 5000
6 | CC(C)Oc1ccc(-n2c(C(=O)NCc3ccccc3)c3n(c2=O)CCN(C(=O)/C=C/c2ccc(Cl)c(Cl)c2)C3)cc1 [Example 242, N-benzyl-7-[(E)-3-(3,4-dichlorophenyl)prop-2-enoyl]-2-(4-isopropoxyphenyl)-3-oxo-6,8-dihydro-5H-imidazo[1,5-a]pyrazine-1-carboxamide] | > 5000
7 | CC(C)Oc1ccc(-n2c(C(=O)NCc3ccc(C(F)F)cc3)c3n(c2=O)CCN(C(=O)c2ccc(Br)c(Cl)c2)C3)cc1 [Example 243, 7-(4-bromo-3-chloro-benzoyl)-N-[[4-(difluoromethyl)phenyl]methyl]-2-(4-isopropoxyphenyl)-3-oxo-6,8-dihydro-5H-imidazo[1,5-a]pyrazine-1-carboxamide] | 100 to 500
8 | COc1ccc(CNC(=O)c2c3n(c(=O)n2-c2ccc(OCC(F)(F)F)cc2)CCN(C(=O)c2ccc(Br)c(Cl)c2)C3)c(F)c1 [Example 244, 7-(4-bromo-3-chloro-benzoyl)-N-[(2-fluoro-4-methoxy-phenyl)methyl]-3-oxo-2-[4-(2,2,2-trifluoroethoxy)phenyl]-6,8-dihydro-5H-imidazo[1,5-a]pyrazine-1-carboxamide] | 100 to 500
9 | COc1ccc(CNC(=O)c2c3n(c(=O)n2-c2ccc(OCC(F)(F)F)cc2)CCN(C(=O)c2ccc(Br)c(Cl)c2)C3)c(C)c1 [Example 246, 7-(4-bromo-3-chloro-benzoyl)-N-[(4-methoxy-2-methyl-phenyl)methyl]-3-oxo-2-[4-(2,2,2-trifluoroethoxy)phenyl]-6,8-dihydro-5H-imidazo[1,5-a]pyrazine-1-carboxamide] | 100 to 500
10 | O=C(NCc1ccccc1)c1c2n(c(=O)n1-c1ccc3sccc3c1)CCN(C(=O)c1ccc(Br)c(Cl)c1)C2 [Example 248] | 100 to 500
11 | COc1cc(C#N)ccc1CNC(=O)c1c2n(c(=O)n1-c1ccc(OCC(F)(F)F)cc1)CCN(C(=O)c1ccc(Br)c(Cl)c1)C2 [Example 249, 7-(4-bromo-3-chloro-benzoyl)-N-[(4-cyano-2-methoxy-phenyl)methyl]-3-oxo-2-[4-(2,2,2-trifluoroethoxy)phenyl]-6,8-dihydro-5H-imidazo[1,5-a]pyrazine-1-carboxamide] | 100 to 500
12 | COCCOc1ccc(-n2c(C(=O)NCc3ccccc3)c3n(c2=O)CCN(C(=O)c2ccc(Br)c(Cl)c2)C3)cc1 [Example 250, N-benzyl-7-(4-bromo-3-chloro-benzoyl)-2-[4-(2-methoxyethoxy)phenyl]-3-oxo-6,8-dihydro-5H-imidazo[1,5-a]pyrazine-1-carboxamide] | 100 to 500
13 | CCc1cc(OC)ccc1CNC(=O)c1c2n(c(=O)n1-c1ccc(OC)cc1)CCN(C(=O)c1ccc(Br)c(Cl)c1)C2 [Example 251, 7-(4-bromo-3-chloro-benzoyl)-N-[(2-ethyl-4-methoxy-phenyl)methyl]-2-(4-methoxyphenyl)-3-oxo-6,8-dihydro-5H-imidazo[1,5-a]pyrazine-1-carboxamide] | 100 to 500
14 | COc1cc2occc2cc1CNC(=O)c1c2n(c(=O)n1-c1ccc(OC(C)C)cc1)CCN(C(=O)c1ccc(Br)c(Cl)c1)C2 [Example 255, 7-(4-bromo-3-chloro-benzoyl)-2-(4-isopropoxyphenyl)-N-[(6-methoxybenzofuran-5-yl)methyl]-3-oxo-6,8-dihydro-5H-imidazo[1,5-a]pyrazine-1-carboxamide] | 100 to 500
15 | Cc1cc(-n2c(C(=O)NCc3ccccc3)c3n(c2=O)CCN(C(=O)c2ccc(Br)c(Cl)c2)C3)ccc1C#N [Example 257, N-benzyl-7-(4-bromo-3-chloro-benzoyl)-2-(4-cyano-3-methyl-phenyl)-3-oxo-6,8-dihydro-5H-imidazo[1,5-a]pyrazine-1-carboxamide] | 500 to 5000
16 | COc1ccc(CNC(=O)c2c3n(c(=O)n2-c2ccc(OCC(F)(F)F)cc2)CCN(C(=O)c2ccc(Br)c(Cl)c2)C3)c(-n2cccn2)c1 [Example 258, 7-(4-bromo-3-chloro-benzoyl)-N-[(4-methoxy-2-pyrazol-1-yl-phenyl)methyl]-3-oxo-2-[4-(2,2,2-trifluroethoxy)phenyl]-6,8-dihydro-5H-imidazo[1,5-a]pyrazine-1-carboxamide] | < 100
17 | COc1cccc(C)c1CNC(=O)c1c2n(c(=O)n1-c1ccc(OCC(F)(F)F)cc1)CCN(C(=O)c1ccc(Br)c(Cl)c1)C2 [Example 259, 7-(4-bromo-3-chloro-benzoyl)-N-[(2-methoxy-6-methyl-phenyl)methyl]-3-oxo-2-[4-(2,2,2-trifluoroethoxy)phenyl]-6,8-dihydro-5H-imidazo[1,5-a]pyrazine-1-carboxamide] | 100 to 500
18 | O=C(NCc1ccccc1)c1c2n(c(=O)n1-c1ccc(OCC(F)F)cc1)CCN(C(=O)c1ccc(Br)c(Cl)c1)C2 [Example 260, N-benzyl-7-(4-bromo-3-chloro-benzoyl)-2-[4-(2,2-difluoroethoxy)phenyl]-3-oxo-6,8-dihydro-5H-imidazo[1,5-a]pyrazine-1-carboxamide] | 500 to 5000
19 | O=C(NCc1ccccc1-n1ccnc1)c1c2n(c(=O)n1-c1ccc(OCC(F)(F)F)cc1)CCN(C(=O)c1ccc(Br)c(Cl)c1)C2 [Example 263, 7-(4-bromo-3-chloro-benzoyl)-N-[(2-imidazol-1-ylphenyl)methyl]-3-oxo-2-[4-(2,2,2-trifluoroethoxy)phenyl]-6,8-dihydro-5H-imidazo[1,5-a]pyrazine-1-carboxamide] | 500 to 5000
